Measured values: patent publication US5284850A, “Terpene amino alcohols and medicinal uses thereof” (Kuraray Co., Ltd., priority 1985, dated 1994)
Counter-ions that a name gives are not always drawn.

Tests used:
Scopolamine-treated mice = test: Effect of improving the memories of amnesia models: scopolamine-induced amnesia, latency; assay type: in vivo, mice of ddK strain; details: 100 mg/kg oral; for improvement of shortening of latency induced by scopolamine (in words): compared with calcium hopantenate and pramiracetam
Text: (§1) The mice were allowed to take feeds and water freely. The device comprised a dark chamber (a rectangular box 20 cm high, with a floor grid, 12 cm×15 cm) and a bright chamber (a box with an open top and a floor grid, 15 cm×15 cm, surrounded by rectangular walls, 15 cm^w ×20 cm^H, on four sides). The two chambers were in contact with each other sharing a common surface of 15 cm×20 cm which is provided with an opening through which the mouse could move freely. A stainless steel wire, which was connected to an electric impulse apparatus (manufactured by Nippon Medical and Chemical Instruments Co., Ltd.), was placed on the floor grid in the dark chamber. The bright chamber was illuminated with a 60 W electric bulb from a height of about 45 cm above the floor grid. Each mouse was placed on the floor grid in the bright chamber. Immediately after the mouse (four limbs) entered the dark chamber, it was loaded with an electroshock cf DC 50 V through the floor grid for about three seconds. Immediately after electroshock loading, the mouse was taken out from the dark chamber. […] Scopolamine, 3 mg, was administered intraperitoneally to mice to induce amnesia 20 minutes before initiation of acquisition trials. A 5% aqueous suspension of each test compound in gum arabic solution was administered orally to mice immediately after carbon dioxide loading or to mice immediately after completion of the acquisition trials following scopolamine administration.

CO2 -treated mice = test: Effect of improving the memories of amnesia models: CO2-induced amnesia, latency; assay type: in vivo, mice of ddK strain; details: 100 mg/kg oral
Text: as §1, with “Immediately after the acquisition trials, each mouse” for “Scopolamine, 3 mg,”, “left in a container filled with carbon dioxide for a period of 8 seconds” for “administered intraperitoneally to mice”, “amnesia.” for “amnesia 20 minutes before initiation of acquisition trials.”

[1] = system: sensitized bronchial muscle; test: Antiallergic action: inhibition of egg albumin-induced contraction of sensitized guinea pig bronchial muscle; assay type: tissue-based, guinea pigs of Hartley strain; details: Cavia porcellus; for inhibition at 100 µM: 10^-4 M; for inhibition at 10 µM: 10^-5 M; for inhibition at 1 µM: 10^-6 M; for inhibition at 0.1 µM: 10^-7 M; for inhibition at 0.01 µM: 10^-8 M
Experimental: Male guinea pigs of Hartley strain (body weight: about 250 g) were intraperitoneally or intramuscularly dosed with egg albumin (dose 100 mg/kg) and the same procedure was repeated after 3 days. After 3 to 4 weeks, the guinea pi-as were bled to death and the sensitized bronchial muscle was excised and cut into 1.5 mm thick rings. Three rings were joined to prepare a specimen. The specimen was suspended in a tissue bath and a load of 1 g was applied. […] After stabilization of the specimen (after about 1 hour), histamine hydrochloride was added to the bath at a final concentration of 10^-5 M. The contraction curve was recorded. After the contraction had been stabilized, the specimen was washed with 3 portions of Ringer's solution at 10-minute intervals to stabilize the contraction (about 1 hour was required). Then, the test compound was added to the tissue bath and, after an interval of 10 minutes, 5 mg/ml of egg albumin was added. The contraction amplitude of the specimen was measured and the percent inhibition was calculated according to the following formula. [formula] A: Contraction amplitude of control group when egg albumin is added A': Contraction amplitude of dosage group when egg albumin is added
H: Contraction amplitude of control group when histamine hydrochloride is added
H': Contraction amplitude of dosage group when histamine hydrochloride is added

[2] = cited from earlier work; for side effects: prior art
mice of ddK strain = test: KCN anoxia test; assay type: in vivo; details: for Number of survivals/Number of mice used / Survival rate (%): 100 mg/kg i.p., KCN 2.65 mg/kg i.v. after 30 minutes, 180 seconds; for Number of survivals/Number of mice used: control 0/8; for Survival rate (%): control 0, *P < 0.05, **P < 0.01; for anti-anoxic action (in words): KCN anoxia test
[3] = scopolamine-treated control 83.5 ± 21.5, normal mice 394.2 ± 84.0
[4] = CO2-treated control 106.5 ± 24.9, normal mice 394.2 ± 84.0
[5] = scopolamine-treated control 54.6 ± 14.5
[6] = CO2-treated control 37.6 ± 19.6

Row | SMILES | inhibition at 10 µM [1] [%] | inhibition at 1 µM [1] [%] | inhibition at 0.1 µM [1] [%] | also measured
1 | CC(C)N(CCNC(=O)CN1CCCC1=O)C(C)C [Pramiracetam, pramiracetam, reference compound] |  |  |  | Latency, Mean ± S.E. (Scopolamine-treated mice; [3]): 98.1 ± 24.9 s; memory activating action, CO2-induced amnesia (in words) (CO2 -treated mice): failed to show a significant memory activating action; Latency, Mean ± S.E. (CO2 -treated mice; [4]): 175.8 ± 42.9 s
2 | O=C(O)c1cc(=O)c2c(OCC(O)COc3cccc4oc(C(=O)O)cc(=O)c34)cccc2o1 [Disodium cromoglicate, disodium cromoglicate, reference compound] | 21 | 7.8 | 0 | inhibition at 100 µM [1]: 32.1%; inhibition at 0.01 µM [1]: 0%; antiallergic effect (in words) ([2]; administered by the oral route): does not produce an antiallergic effect
3 | CN1CCC(=C2c3ccccc3CC(=O)c3sccc32)CC1 [Ketotifen, ketotifen] |  |  |  | time until antiallergic effect manifests itself ([2]; delayed effect type): 4-6 weeks; side effects [2]: drowsiness
4 | CC(C)CCCC(C)NC(C)C (stereo not shown) [Iproheptine hydrochloride, iproheptine hydrochloride] |  |  |  | side effects [2]: drowsiness and nausea
5 | CC(C)CCCC(C)CCCC(C)CCCC(C)(O)C(O)CN(C)CCOC(=O)c1cccnc1 (stereo not shown) [Compound (36), 2-[N-(2,3-dihydroxy-3,7,11,15-tetramethylhexadecyl)-N-methylamino]ethyl nicotinate] | 45 | 20 | 8 | improvement of shortening of latency induced by scopolamine (in words) (Scopolamine-treated mice): significantly improved the shortening of latency induced by scopolamine; Latency, Mean ± S.E. (Scopolamine-treated mice; [5]): 78.5 ± 26.9 s; Latency, Mean ± S.E. (Scopolamine-treated mice; scopolamine-treated control 166.7 ± 36.7, normal mice 375.7 ± 74.9, *P < 0.05): 336.2 ± 55.4 s; memory activating action, CO2-induced amnesia (in words) (CO2 -treated mice): very significantly improved the shortening of latency induced by carbon dioxide; Latency, Mean ± S.E. (CO2 -treated mice; [6]): 216.0 ± 69.0 s; Latency, Mean ± S.E. (CO2 -treated mice; CO2-treated control 139.4 ± 27.5, normal mice 375.7 ± 74.9, *P < 0.05): 336.6 ± 77.8 s
6 | COc1ccc(/C=C/C(=O)Nc2ccccc2C(=O)O)cc1OC [Tranilast, tranilast, reference compound] | 54.8 | 21 | 0 | inhibition at 100 µM [1]: 32.1%; inhibition at 0.01 µM [1]: 0%; side effects [2]: cystitis-like symptoms such as hematuria, pyuria and dysuria
7 | CC(C)(CO)[C@@H](O)C(=O)NCCCC(=O)O [Calcium hopantenate, calcium hopantenate, reference compound] |  |  |  | Latency, Mean ± S.E. (Scopolamine-treated mice; [3]): 80.5 ± 17.2 s; memory activating action, CO2-induced amnesia (in words) (CO2 -treated mice): failed to show a significant memory activating action; Latency, Mean ± S.E. (CO2 -treated mice; [4]): 115.5 ± 40.6 s
8 | CC(C)=CCCC(C)(O)C(N)CO (stereo not shown) [Compound (50), 2-amino-3,7-dimethyl-6-octene-1,3-diol] | 55 | 20 | 0 | 
9 | COc1ccccc1N1CCN(CC(O)C(C)(O)CCCC(C)CCCC(C)C)CC1 (stereo not shown) [Compound (42)] |  | 58 | 35 | 
10 | CC(C)CCCC(C)CCCC(C)(O)C(O)CN(C)C(=O)c1cccnc1 (stereo not shown) [Compound (15), N-methyl-N-(3,7,11-trimethyl-2,3-hydroxydodecyl)nicotinamide] | 67 | 93 |  | Number of survivals/Number of mice used (mice of ddK strain): 7/9; Survival rate (%) (mice of ddK strain): 77.8%; anti-anoxic action (in words) (mice of ddK strain): significantly high anti-anoxic action; Latency, Mean ± S.E. (Scopolamine-treated mice; [5]): 65.2 ± 20.2 s; memory activating action, CO2-induced amnesia (in words) (CO2 -treated mice): showed a tendency to activate memory; Latency, Mean ± S.E. (CO2 -treated mice; [6]): 163.9 ± 49.1 s; inhibition at 100 µM [1]: 72.5%
11 | CCNCC(O)C(C)(O)CCC=C(C)C (stereo not shown) [Compound (46)] | 54 | 23 |  | inhibition at 100 µM [1]: 38%
12 | CCCNCC(O)C(C)(O)CCC=C(C)C (stereo not shown) [Compound (47)] | 52 | 43 | 5 | 
13 | CC(C)=CCCC(C)(O)C(O)CN(C)CCO (stereo not shown) [Compound (6)] | 48.2 | 28.6 |  | 
14 | CC(C)CCCC(C)CCCC(C)(O)C(O)CNc1ccncc1 (stereo not shown) [Compound (20)] |  | 71 | 40 | inhibition at 0.01 µM [1]: 15%
15 | CC(C)=CCCC(C)(O)C(O)CN1CCOCC1 (stereo not shown) [Compound (5)] | 28.9 | 71.5 | 23 | 
16 | CC(C)CCCC(C)CCCC(C)CCCC(C)(O)C(O)CN(C)CCO (stereo not shown) [Compound (35)] | 27.1 | 85.5 | 35 | Number of survivals/Number of mice used (mice of ddK strain): 8/9; Survival rate (%) (mice of ddK strain): 88.9%; anti-anoxic action (in words) (mice of ddK strain): significantly high anti-anoxic action; improvement of shortening of latency induced by scopolamine (in words) (Scopolamine-treated mice): significantly improved the shortening of latency induced by scopolamine; Latency, Mean ± S.E. (Scopolamine-treated mice; scopolamine-treated control 169.0 ± 53.0, normal mice 382.4 ± 83.6): 320.2 ± 66.2 s; memory activating action, CO2-induced amnesia (in words) (CO2 -treated mice): showed a tendency to activate memory; Latency, Mean ± S.E. (CO2 -treated mice; CO2-treated control 138.2 ± 43.6, normal mice 382.4 ± 83.6): 258.4 ± 94.5 s; inhibition at 0.01 µM [1]: 22%
17 | CC(C)CCCC(C)CCCC(C)(O)C(O)CNCCCN1CCOCC1 (stereo not shown) [Compound (22)] |  |  | 46.9 | 
18 | CCCCN(CCCC)CC(O)C(C)(O)CCCC(C)C (stereo not shown) [Compound (9)] | 27.9 | 67.2 | 56 | inhibition at 0.01 µM [1]: 16%
19 | CC(C)CCCC(C)CCCC(C)(O)C(O)CN (stereo not shown) [Compound (11), 1-amino-3,7,11-trimethyl-2,3-dodecanediol] | 40.7 | 32.5 |  | 
20 | CC(C)=CCCC(C)(O)C(CO)N(C)CCO (stereo not shown) [Compound (57)] | 35 | 17 |  | 
21 | CCCCN(CCCC)CC(O)C(C)(O)CCCC(C)CCCC(C)CCCC(C)C (stereo not shown) [Compound (34)] | 65.2 | 33 | 3 | 
22 | CNCCC(C)(O)CCCC(C)(O)CCCC(C)C (stereo not shown) [Compound (27), 1-(methylamino)-3,7,11-trimethyl-3,7-dodecanediol] |  |  | 15.6 | 
23 | CC(C)CCCC(C)(O)C(O)CNCCO (stereo not shown) [Compound (10)] | 81.2 | 23.8 |  | 
24 | CC(C)CCCC(C)CCCC(C)(O)C(CO)NCCO (stereo not shown) [Compound (67)] | 46 | 49 | 18 | 
25 | CC(C)=CCCC(C)(O)C(O)CN1CCCC1 (stereo not shown) [(3)] | 36.3 | 60 | 34.2 | inhibition at 0.01 µM [1]: 30.8%
26 | CC(C)=CCCC(C)(O)C(O)CN(C)C (stereo not shown) [Compound (45)] | 41 | 26 |  | inhibition at 100 µM [1]: 52%
